What was measured:
Assay type in all cases: functional
[1] = tested on: COLO 205; assay: Cytotoxicity against human COLO205 cells assessed as cell growth at 10^-8 M after 48 hrs by SRB assay relative to control; conditions: COLO 205, 48 h, read-out: Activity
[2] = tested on: A498; assay: Cytotoxicity against human A498 cells assessed as cell growth at 10^-7 M after 48 hrs by SRB assay relative to control; conditions: A498, 48 h, read-out: Activity
[3] = Cytotoxicity against human NCI-ADR-RES cells assessed as cell growth at 10^-8 M after 48 hrs by SRB assay relative to control; conditions: read-out: Activity
[4] = tested on: SK-MEL-5; assay: Cytotoxicity against human SK-MEL-5 cells assessed as cell growth at 10^-4 M after 48 hrs by SRB assay relative to control; conditions: SK-MEL-5, 48 h, read-out: Activity
[5] = tested on: SK-MEL-28; assay: Cytotoxicity against human SK-MEL-28 cells assessed as cell growth at 10^-4 M after 48 hrs by SRB assay relative to control; conditions: SK-MEL-28, 48 h, read-out: Activity
[6] = Cytotoxicity against human Hs 578T cells assessed as cell growth at 10^-6 M after 48 hrs by SRB assay relative to control; conditions: read-out: Activity
[7] = tested on: NCI-H226; assay: Cytotoxicity against human NCI-H226 cells after 48 hrs by SRB assay; conditions: NCI-H226, 48 h
[8] = tested on: MOLT-4; assay: Cytotoxicity against human MOLT4 cells assessed as cell growth at 10^-7 M after 48 hrs by SRB assay relative to control; conditions: MOLT-4, 48 h, read-out: Activity
[9] = Cytotoxicity against human UO31 cells after 48 hrs by SRB assay; conditions: UO-31, 48 h
[10] = tested on: HCC 2998; assay: Cytotoxicity against human HCC2998 cells after 48 hrs by SRB assay; conditions: HCC 2998, 48 h; for CC50: read-out: LC50 (the source's name)
[11] = tested on: A498; assay: Cytotoxicity against human A498 cells after 48 hrs by SRB assay; conditions: A498, 48 h; for CC50: read-out: LC50 (the source's name)
[12] = tested on: NCI-H226; assay: Cytotoxicity against human NCI-H226 cells assessed as cell growth at 10^-4 M after 48 hrs by SRB assay relative to control; conditions: NCI-H226, 48 h, read-out: Activity
[13] = tested on: ACHN; assay: Cytotoxicity against human ACHN cells assessed as cell growth at 10^-6 M after 48 hrs by SRB assay relative to control; conditions: read-out: Activity
[14] = tested on: SN12C; assay: Cytotoxicity against human SN12C cells assessed as cell growth at 10^-6 M after 48 hrs by SRB assay relative to control; conditions: read-out: Activity
[15] = tested on: SN12C; assay: Cytotoxicity against human SN12C cells assessed as cell growth at 10^-7 M after 48 hrs by SRB assay relative to control; conditions: read-out: Activity
[16] = tested on: U-251; assay: Cytotoxicity against human U251 cells assessed as cell growth at 10^-6 M after 48 hrs by SRB assay relative to control; conditions: U-251, 48 h, read-out: Activity
[17] = tested on: NCI-H322M; assay: Cytotoxicity against human NCI-H322M cells assessed as cell growth at 10^-4 M after 48 hrs by SRB assay relative to control; conditions: read-out: Activity
[18] = tested on: SF-539; assay: Cytotoxicity against human SF539 cells after 48 hrs by SRB assay; conditions: SF-539, 48 h; for CC50: read-out: LC50 (the source's name)
[19] = tested on: RXF 393; assay: Cytotoxicity against human RXF393 cells assessed as cell growth at 10^-8 M after 48 hrs by SRB assay relative to control; conditions: RXF 393, 48 h, read-out: Activity
[20] = tested on: A498; assay: Cytotoxicity against human A498 cells assessed as cell growth at 10^-4 M after 48 hrs by SRB assay relative to control; conditions: A498, 48 h, read-out: Activity
[21] = tested on: SNB-19; assay: Cytotoxicity against human SNB19 cells after 48 hrs by SRB assay; conditions: SNB-19, 48 h; for CC50: read-out: LC50 (the source's name)
[22] = tested on: CAKI-1; assay: Cytotoxicity against human Caki1 cells assessed as cell growth at 10^-6 M after 48 hrs by SRB assay relative to control; conditions: CAKI-1, 48 h, read-out: Activity
[23] = tested on: K562; assay: Cytotoxicity against human K562 cells after 48 hrs by SRB assay; conditions: K562, 48 h; for CC50: read-out: LC50 (the source's name)
[24] = tested on: SK-MEL-28; assay: Cytotoxicity against human SK-MEL-28 cells assessed as cell growth at 10^-7 M after 48 hrs by SRB assay relative to control; conditions: SK-MEL-28, 48 h, read-out: Activity
[25] = tested on: HOP-62; assay: Cytotoxicity against human HOP62 cells assessed as cell growth at 10^-4 M after 48 hrs by SRB assay relative to control; conditions: HOP-62, 48 h, read-out: Activity
[26] = tested on: SF-268; assay: Cytotoxicity against human SF268 cells assessed as cell growth at 10^-6 M after 48 hrs by SRB assay relative to control; conditions: SF-268, 48 h, read-out: Activity
[27] = tested on: SW-620; assay: Cytotoxicity against human SW620 cells after 48 hrs by SRB assay; conditions: SW-620, 48 h; for CC50: read-out: LC50 (the source's name)
[28] = tested on: MDA-MB-468; assay: Cytotoxicity against human MDA-MB-468 cells after 48 hrs by SRB assay; conditions: MDA-MB-468, 48 h
[29] = tested on: HL-60(TB); assay: Cytotoxicity against human HL-60(TB) cells after 48 hrs by SRB assay; conditions: HL-60, 48 h; for CC50: read-out: LC50 (the source's name)
[30] = tested on: TK-10; assay: Cytotoxicity against human TK10 cells assessed as cell growth at 10^-7 M after 48 hrs by SRB assay relative to control; conditions: TK-10, 48 h, read-out: Activity
[31] = tested on: SK-MEL-28; assay: Cytotoxicity against human SK-MEL-28 cells assessed as cell growth at 10^-6 M after 48 hrs by SRB assay relative to control; conditions: SK-MEL-28, 48 h, read-out: Activity
[32] = tested on: SF-295; assay: Cytotoxicity against human SF295 cells assessed as cell growth at 10^-6 M after 48 hrs by SRB assay relative to control; conditions: SF-295, 48 h, read-out: Activity
[33] = Cytotoxicity against human OVCAR5 cells after 48 hrs by SRB assay; conditions: OVCAR-5, 48 h; for CC50: read-out: LC50 (the source's name)
[34] = tested on: SK-MEL-2; assay: Cytotoxicity against human SK-MEL-2 cells assessed as cell growth at 10^-4 M after 48 hrs by SRB assay relative to control; conditions: SK-MEL-2, 48 h, read-out: Activity
[35] = Cytotoxicity against human OVCAR3 cells after 48 hrs by SRB assay; conditions: OVCAR-3, 48 h
[36] = tested on: Malme-3M; assay: Cytotoxicity against human MALME-3M cells assessed as cell growth at 10^-4 M after 48 hrs by SRB assay relative to control; conditions: read-out: Activity

## CC(C)=CCC[C@H](C)c1ccc(C)c(CNCC2CCNCC2)c1O
[1]
  growth at 0.01 µM: 106%
[2]
  growth at 0.1 µM: 74%
[3]
  growth at 0.01 µM: 100%
[4]
  growth at 100 µM: 100%
[5]
  growth at 100 µM: -91%
[6]
  growth at 1 µM: 97%
[7]
  GI50: 10.4 µM
  LC50: > 25 µM
  TGI: > 25 µM
[8]
  growth at 0.1 µM: 96%
[9]
  GI50: 3.58 µM
  LC50: > 25 µM
  TGI: 12.3 µM
[10]
  GI50: 4.13 µM
  TGI: 7.73 µM
  CC50: 14.4 µM
[11]
  GI50: 12.1 µM
  TGI: > 25 µM
  CC50: > 25 µM
[12]
  growth at 100 µM: 37%
[13]
  growth at 1 µM: 92%
[14]
  growth at 1 µM: 93%
[15]
  growth at 0.1 µM: 91%
[16]
  growth at 1 µM: 94%
[17]
  growth at 100 µM: 13%
[18]
  GI50: 4.07 µM
  TGI: 8.32 µM
  CC50: 17 µM
[19]
  growth at 0.01 µM: 101%
[20]
  growth at 100 µM: 43%
[21]
  GI50: 3.99 µM
  TGI: > 25 µM
  CC50: > 25 µM
[22]
  growth at 1 µM: 89%
[23]
  GI50: 1.01 µM
  TGI: 4.86 µM
  CC50: 19.9 µM
[24]
  growth at 0.1 µM: 100%
[25]
  growth at 100 µM: -74%
[26]
  growth at 1 µM: 92%
[27]
  GI50: 4.11 µM
  TGI: 8.14 µM
  CC50: 16.1 µM
[28]
  GI50: 3.33 µM
  LC50: 14.1 µM
  TGI: 6.86 µM
[29]
  GI50: 5.02 µM
  TGI: 10.2 µM
  CC50: 20.7 µM
[30]
  growth at 0.1 µM: 92%
[31]
  growth at 1 µM: 98%
[32]
  growth at 1 µM: 86%
[33]
  GI50: 9.56 µM
  TGI: > 25 µM
  CC50: > 25 µM
[34]
  growth at 100 µM: -70%
[35]
  GI50: 8.44 µM
  LC50: > 25 µM
  TGI: > 25 µM
[36]
  growth at 100 µM: -62%

## CC(C)=CCC[C@H](C)c1ccc(C)c2c1OCN(CC1CCNCC1)C2
[1]
  growth at 0.01 µM: 109%
[2]
  growth at 0.1 µM: 82%
[3]
  growth at 0.01 µM: 104%
[4]
  growth at 100 µM: -85%
[5]
  growth at 100 µM: -98%
[6]
  growth at 1 µM: 104%
[7]
  GI50: 17.7 µM
  LC50: 64.5 µM
  TGI: 33.8 µM
[8]
  growth at 0.1 µM: 104%
[9]
  GI50: 12.8 µM
  LC50: 58.2 µM
  TGI: 27.3 µM
[10]
  GI50: 3.74 µM
  TGI: 12.3 µM
  CC50: 37.5 µM
[11]
  GI50: 12.3 µM
  TGI: 26 µM
  CC50: 55 µM
[12]
  growth at 100 µM: -84%
[13]
  growth at 1 µM: 106%
[14]
  growth at 1 µM: 102%
[15]
  growth at 0.1 µM: 102%
[16]
  growth at 1 µM: 100%
[17]
  growth at 100 µM: -68%
[18]
  GI50: 13.7 µM
  TGI: 27.5 µM
  CC50: 55.3 µM
[19]
  growth at 0.01 µM: 86%
[20]
  growth at 100 µM: -90%
[21]
  GI50: 14 µM
  TGI: 29.4 µM
  CC50: 61.8 µM
[22]
  growth at 1 µM: 98%
[23]
  GI50: 2.68 µM
  TGI: 8.44 µM
  CC50: 97.7 µM
[24]
  growth at 0.1 µM: 101%
[25]
  growth at 100 µM: -94%
[26]
  growth at 1 µM: 102%
[27]
  GI50: 9.87 µM
  TGI: 23.1 µM
  CC50: 53.5 µM
[28]
  GI50: 5.01 µM
  LC50: 53.1 µM
  TGI: 18.4 µM
[29]
  GI50: 3.9 µM
  TGI: 18.9 µM
  CC50: 59.3 µM
[30]
  growth at 0.1 µM: 113%
[31]
  growth at 1 µM: 101%
[32]
  growth at 1 µM: 87%
[33]
  GI50: 14.3 µM
  TGI: 28.8 µM
  CC50: 57.7 µM
[34]
  growth at 100 µM: -78%
[35]
  GI50: 15.6 µM
  LC50: 62.1 µM
  TGI: 31.1 µM
[36]
  growth at 100 µM: -76%
